# Laboratory results taken from patent publication US6943183B2 (Pfizer Inc, priority 2000, dated 2005).
# Target: T1, SF9 affinity purified rat FPT (Rattus norvegicus, UniProt Q02293+Q04631)
# T1 construct: made in house; host or cells: Sf9 insect cells
# Assay: PFT (FPT) inhibitory activity assay, radiolabeled farnesyl pyrophosphate and biotinyl peptide, streptavidin beads
# Assay type: biochemical
# Settings: HEPES buffer pH 7.4, 30° C., 30 minutes; read-out: FTase IC50
# Outline: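 Rat FPT expressed in SF9 cells was incubated 30 minutes at 30° C. with compound (in 10% DMSO), radiolabeled farnesyl pyrophosphate and biotinylated peptide. Buffer: HEPES pH 7.4, ZnCl2 20 μM, MgCl2 and DTT 5 mM each, 0.1% PEG 8000, 5 mM potassium phosphate (also run without phosphate). Product captured on streptavidin beads in magnesium acetate/H3PO4 stop buffer.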
row,Compound,IC50 [nM]
1,"COc1ccc([S+]([O-])Cc2c(O[C@H](Cn3ccnc3)c3ccccc3)ccc3c2CCCC3=O)cc1 (stereo partly drawn) [Compound 141, 6-((S)-2-Imidazol-1-yl-1-phenyl-ethoxy)-5-(4-methoxy-benzenesulfinylmethyl)-3,4-dihydro-2H-napthalen-1-one]",0.35
2,"CC(=O)N(Cc1c(O[C@H](Cn2ccnc2)c2ccccc2)ccc2c1CCCC2=O)c1ccc(C)cc1 [Compound 144, N-[2-((S)-2-Imidazol-1-yl-1-phenyl-ethoxy)-5-oxo-5,6,7,8-tetrahydro-naphthalen-1-ylmethyl]-N-β-tolyl-acetamide]",35
3,O=C1CCCc2c1ccc(O[C@H](Cn1ccnc1)c1ccccc1)c2CNc1ccc2[nH]ncc2c1 [Compound 145],16
4,"O=C1CCCc2c1ccc(O[C@H](Cn1ccnc1)c1ccccc1)c2CN1CCN(c2ccccc2)CC1 [Compound 146, 6-((S)-2-Imidazol-1-yl-1-phenyl-ethoxy)-5-(4-phenyl-piperazin-1-ylmethyl)-3,4-dihydro-2H-napthalen-1-one]",34
5,"O=C1CCCc2c1ccc(O[C@H](Cn1ccnc1)c1ccccc1)c2CN1CCN(c2ccccn2)CC1 [Compound 147, 6-((S)-2-Imidazol-1-yl-1-phenyl-ethoxy)-5-(4-pyridin-2-yl-piperazin-1-ylmethyl)-3,4-dihydro-2H-napthalen-1-one]",19
6,"O=C1CCCc2c1ccc(O[C@H](Cn1ccnc1)c1ccccc1)c2CNc1cccc2cccnc12 [Compound 148, 6-((S)-2-Imidazol-1-yl-1-phenyl-ethoxy)-5-(quinolin-8-ylaminomethyl)-3,4-dihydro-2H-napthalen-1-one]",5.3
7,"N#Cc1ccccc1NCc1c(O[C@H](Cn2ccnc2)c2ccccc2)ccc2c1CCCC2=O [Compound 149, 2-{[2-((S)-2-Imidazol-1-yl-1-phenyl-ethoxy)-5-oxo-5,6,7,8-tetrahydro-napthalen-1-ylmethyl]-amino}-benzonitrile]",3
8,"O=C1CCCc2c1ccc(O[C@H](Cn1ccnc1)c1ccccc1)c2CNc1ccc(Br)cc1 [Compound 150, 5-[(4-Bromo-phenylamino)-methyl]-6-((S)-2-imidazol-1-yl-1-phenyl-ethoxy)-3,4-dihydro-2H-napthalen-1-one]",16
9,"O=C1CCCc2c1ccc(O[C@H](Cn1ccnc1)c1ccccc1)c2CNc1ccc(F)cc1 [Compound 151, 5-[(4-Fluoro-phenylamino)-methyl]-6-((S)-2-imidazol-1-yl-1-phenyl-ethoxy)-3,4-dihydro-2H-napthalen-1-one]",19
10,"O=C1CCCc2c1ccc(O[C@H](Cn1ccnc1)c1ccccc1)c2CNc1ccc2c(c1)OCCO2 [Compound 152, 5-[(2,3-Dihydro-benzo[1,4]dioxin-6-ylamino)-methyl]-6-((S)-2-imidazol-1-yl-1-phenyl-ethoxy)-3,4-dihydro-2H-napthalen-1-one]",5
11,"O=C1CCCc2c1ccc(O[C@H](Cn1ccnc1)c1ccccc1)c2CSCc1ccc(Cl)c(Cl)c1 [Compound 153, 5-(3,4-Dichloro-benzylsulfanylmethyl)-6-((1S)-2-imidazol-1-yl-1-phenyl-ethoxy)-3,4-dihydro-2H-naphthalen-1-one]",15
12,"COC(=O)c1ccccc1S(=O)(=O)Cc1c(O[C@H](Cn2ccnc2)c2ccccc2)ccc2c1CCCC2=O [Compound 154, Methyl 2-{[(2-{[(1S)-2-(1H-Imidazol-1-yl)-1-phenylethyl]oxy}-5-oxo-5,6,7,8-tetrahydro-1-naphthalenyl)methyl]sulfonyl}benzoate]",2.6
13,"COC(=O)c1ccc(S(=O)(=O)Cc2c(O[C@H](Cn3ccnc3)c3ccccc3)ccc3c2CCCC3=O)cc1 [Compound 155, Methyl 4-{[(2-{[(1S)-2-(1H-Imidazol-1-yl)-1-phenylethyl]oxy}-5-oxo-5,6,7,8-tetrahydro-1-naphthalenyl)methyl]sulfonyl}benzoate]",20
14,COC(=O)c1cccc(S(=O)(=O)Cc2c(O[C@H](Cn3ccnc3)c3ccccc3)ccc3c2CCCC3=O)c1 [Compound 156],5
15,"COC(=O)c1ccc(SCc2c(O[C@H](Cn3ccnc3)c3ccccc3)ccc3c2CCCC3=O)cc1 [Compound 157, Methyl 4-{[(2-{[(1S)-2-(1H-Imidazol-1-yl)-1-phenylethyl]oxy}-5-oxo-5,6,7,8-tetrahydro-1-naphthalenyl)methyl]sulfanyl}benzoate]",4
16,"COC(=O)c1cccc(SCc2c(O[C@H](Cn3ccnc3)c3ccccc3)ccc3c2CCCC3=O)c1 [Compound 158, Methyl 3-{[(2-{[(1S)-2-(1H-Imidazol-1-yl)-1-phenylethyl]oxy}-5-oxo-5,6,7,8-tetrahydro-1-naphthalenyl)methyl]sulfanyl}benzoate]",4

row,Compound,IC50 [nM]
1,"O=C(O)c1ccccc1S(=O)(=O)Cc1c(O[C@H](Cn2ccnc2)c2ccccc2)ccc2c1CCCC2=O [Compound 159, 2-{[(2-{[(1S)-2-(1H-Imidazol-1-yl)-1-phenylethyl]oxy}-5-oxo-5,6,7,8-tetrahydro-1-naphthalenyl)methyl]sulfonyl}benzoic Acid]",5.5
2,"O=C(O)c1ccc(S(=O)(=O)Cc2c(O[C@H](Cn3ccnc3)c3ccccc3)ccc3c2CCCC3=O)cc1 [Compound 160, 4-{[(2-{[(1S)-2-(1H-Imidazol-1-yl)-1-phenylethyl]oxy}-5-oxo-5,6,7,8-tetrahydro-1-naphthalenyl)methyl]sulfonyl}benzoic Acid]",10
3,"O=C(O)c1cccc(S(=O)(=O)Cc2c(O[C@H](Cn3ccnc3)c3ccccc3)ccc3c2CCCC3=O)c1 [Compound 161, 3-{[(2-{[(1S)-2-(1H-Imidazol-1-yl)-1-phenylethyl]oxy}-5-oxo-5,6,7,8-tetrahydro-1-naphthalenyl)methyl]sulfonyl}benzoic Acid]",5
4,"O=C(O)c1ccc(SCc2c(O[C@H](Cn3ccnc3)c3ccccc3)ccc3c2CCCC3=O)cc1 [Compound 162, 4-{[(2-{[(1S)-2-(1H-Imidazol-1-yl)-1-phenylethyl]oxy}-5-oxo-5,6,7,8-tetrahydro-1-naphthalenyl)methyl]sulfanyl}benzoic Acid]",8
5,"O=C(O)c1cccc(SCc2c(O[C@H](Cn3ccnc3)c3ccccc3)ccc3c2CCCC3=O)c1 [Compound 163, 3-{[(2-{[(1S)-2-(1H-Imidazol-1-yl)-1-phenylethyl]oxy}-5-oxo-5,6,7,8-tetrahydro-1-naphthalenyl)methyl]sulfanyl}benzoic Acid]",5
6,"CNC(=O)c1ccccc1S(=O)(=O)Cc1c(O[C@H](Cn2ccnc2)c2ccccc2)ccc2c1CCCC2=O [Compound 164, 2-{[(2-{[(1S)-2-(1H-Imidazol-1-yl)-1-phenylethyl]oxy}-5-oxo-5,6,7,8-tetrahydro-1-naphthalenyl)methyl]sulfonyl)-N-methylbenzamide]",5.3
7,"O=C(NCCO)c1ccccc1S(=O)(=O)Cc1c(O[C@H](Cn2ccnc2)c2ccccc2)ccc2c1CCCC2=O [Compound 165, N-(2-Hydroxyethyl)-2-{[(2-{[(1S)-2-(1H-imidazol-1-yl)-1-phenylethyl]oxy}-5-oxo-5,6,7,8-tetrahydro-1-naphthalenyl)methyl]sulfonyl}benzamide]",6.4
8,"O=C(O)CCNC(=O)c1ccc(S(=O)(=O)Cc2c(O[C@H](Cn3ccnc3)c3ccccc3)ccc3c2CCCC3=O)cc1 [Compound 166, N-4-{[(2-{[(1S)-2-(1H-Imidazol-1-yl)-1-phenylethyl]oxy}-5-oxo-5,6,7,8-tetrahydro-1-naphthalenyl)methyl]sulfonyl}benzoyl-β-alanine]",30
9,"O=C(O)CCNC(=O)c1ccccc1S(=O)(=O)Cc1c(O[C@H](Cn2ccnc2)c2ccccc2)ccc2c1CCCC2=O [Compound 167, N-2-{[(2-{[(1S)-2-(1H-Imidazol-1-yl)-1-phenylethyl]oxy}-5-oxo-5,6,7,8-tetrahydro-1-naphthalenyl)methyl]sulfonyl}benzoyl-β-alanine]",7
10,"O=C(O)CCNC(=O)c1cccc(S(=O)(=O)Cc2c(O[C@H](Cn3ccnc3)c3ccccc3)ccc3c2CCCC3=O)c1 [Compound 168, N-3-{[(2-{[(1S)-2-(1H-Imidazol-1-yl)-1-phenylethyl]oxy}-5-oxo-5,6,7,8-tetrahydro-1-naphthalenyl)methyl]sulfonyl}benzoyl-β-alanine]",10
11,"O=C(O)CCNC(=O)c1ccccc1SCc1c(O[C@H](Cn2ccnc2)c2ccccc2)ccc2c1CCCC2=O [Compound 169, N-2-{[(2-{[(1S)-2-(1H-Imidazol-1-yl)-1-phenylethyl]oxy}-5-oxo-5,6,7,8-tetrahydro-1-naphthalenyl)methyl]sulfanyl}benzoyl-β-alanine]",7
12,"O=C(O)CCNC(=O)c1ccc(SCc2c(O[C@H](Cn3ccnc3)c3ccccc3)ccc3c2CCCC3=O)cc1 [Compound 170, N-4-{[(2-{[(1S)-2-(1H-Imidazol-1-yl)-1-phenylethyl]oxy}-5-oxo-5,6,7,8-tetrahydro-1-naphthalenyl)methyl]sulfanyl}benzoyl-β-alanine]",7
13,"O=C(O)CCNC(=O)c1cccc(SCc2c(O[C@H](Cn3ccnc3)c3ccccc3)ccc3c2CCCC3=O)c1 [Compound 171, N-3-{[(2-{[(1S)-2-(1H-Imidazol-1-yl)-1-phenylethyl]oxy}-5-oxo-5,6,7,8-tetrahydro-1-naphthalenyl)methyl]sulfanyl}benzoyl-β-alanine]",6
14,"O=C(NCCO)c1cccc(SCc2c(O[C@H](Cn3ccnc3)c3ccccc3)ccc3c2CCCC3=O)c1 [Compound 172, N-(2-Hydroxyethyl)-3-{[(2-{[(1S)-2-(1H-imidazol-1-yl)-1-phenylethyl]oxy}-5-oxo-5,6,7,8-tetrahydro-1-naphthalenyl)methyl]sulfanyl}benzamide]",5
15,"O=C(NCCO)c1ccccc1SCc1c(O[C@H](Cn2ccnc2)c2ccccc2)ccc2c1CCCC2=O [Compound 173, N-(2-Hydroxyethyl)-2-{[(2-{[(1S)-2-(1H-imidazol-1-yl)-1-phenylethyl]oxy}-5-oxo-5,6,7,8-tetrahydro-1-naphthalenyl)methyl]sulfanyl}benzamide]",4
